Reference: patent publication US6730660B2, “Peritoneal dialysis solutions with polypeptides” (Baxter International Inc., priority 1992, dated 2004)

Test system: albino guinea pigs
Assay: Dermal sensitization study: intradermal induction with Freund's Complete Adjuvant, then intradermal challenge
Type: in vivo, guinea pig
Description: The study was conducted using 10 test animals and four naive control animals per test or positive control material. On Day 1, animals in each test group received duplicate 0.05-mL intradermal injections of a 1:1 ratio of Freund's Complete Adjuvant in sterile water, the respective test material, and a 1:1 ratio of the respective test material in Freund's Complete Adjuvant.
For the positive control group, the animals received duplicate 0.05-mL intradermal injections of a 1:1 ratio of Freund's Complete Adjuvant in sterile water, a 5% w/v suspension of sulfathiazole in sterile water, and a 5% w/v suspension of sulfathiazole in Freund's Complete Adjuvant.
On day 7, animals in all three test groups and the positive control group were pretreated with 10% w/w sodium lauryl sulfate in petrolatum applied topically at the shaved area of the Day 1 intradermal injections. On Day 8, the respective test or positive control material was injected intradermally at a volume of 0.05 mL into two separate areas located just posterior to the initial intradermal injections.
All the test materials were administered undiluted and the positive control was administered as a 5% w/v suspension of sulfathiazole in sterile water. All naive control animals were not treated during the induction phase.
Two weeks following the Day 8 intradermal injections, all animals in the respective test and naive control groups received a challenge intradermal injection. The respective undiluted test material was injected intradermally at a volume of 0.05-mL into one site on the shaved right flank of each respective animal. The positive control animals were treated with a 1% w/v suspension of sulfathiazole in sterile 0.9% saline. The sites were examined for erythema and edema at 24, 48, and 72 hours following injection.
Young adult albino guinea pigs, Hra:(DH)SPF, were procured, maintained individually in screen-bottom stainless steel cages in temperature- and humidity-controlled rooms, provided continuous access to Certified Guinea Pig Chow® 5026, Purina Mills, Inc., and water and held for an acclimation period of at least 7 days. If variations from the prescribed environmental conditions existed, they were documented and considered to have no effect on the study outcome. No contaminants were expected to have been present in the feed or water which would have interfered with or affected the results of the study.
Intradermal Injections (Day 1) A 4-cm×6-cm area was clipped along the midline over the shoulder region of each animal in the test and positive control groups. Six intradermal injections were made within the boundaries of a 2-cm×4-cm area, one row of three injections on each side of the midline as follows: […]

SMILES: Nc1ccc(S(=O)(=O)Nc2nccs2)cc1 [Sulfathiazole]
- dermal reactions at challenge (Day 22 intradermal challenge 0.05 mL, examined at 24, 48 and 72 hours): Dermal sensitization responses were observed
- body weight loss of one animal (animal E17221, Group 11, third week of the study): 76 g
- Classification (sensitizer) (guinea pig, after intradermal challenge): Sensitizer
- # of Positive Reactions/# in Group (test or positive control groups, after intradermal challenge): 9/10
